Source: PMC12630027, “RALGEF inhibitors suppress RAS-driven pancreatic cancer and metastasis” (The Journal of Biological Chemistry, 2025)

Key:
RGL2 (also known as Rlf) = biological target: T1, RGL2 (also known as Rlf) (Homo sapiens, UniProt O15211); experiment: co-immunoprecipitation of H-RAS12V from mixed HEK-293 lysates, Western blot; format: biochemical; conditions: 20 μM (figure legend; 10 μM in methods), HA-H-RAS12V partner, pH 7.5, room temperature; inhibition of RAS/RALGEF complex
T1 construct: full length, GFP-tagged, plasmid gift of CJ Der, expressed in HEK-293, lysate

GFP-tagged RALGDS = biological target: T2, GFP-tagged RALGDS (Homo sapiens, UniProt Q12967); experiment: as above; format: biochemical; conditions: 20 μM (figure legend; 10 μM in methods), HA-H-RAS12V partner, pH 7.5, room temperature; inhibition of RAS/RALGEF complex
T2 construct: full length, GFP-tagged, plasmid gift of CJ Der, expressed in HEK-293, lysate

[1] = biological target: T3, isolated RA domain of RALGDS; experiment: microscale thermophoresis, one-site model; conditions: 50 nM fluorescently labelled RALGDS RA domain, 5% DMSO; average of four experiments; compound solubility may have compromised the assay; read-out: binding affinity
T3 construct: isolated RAS association (RA) domain, C-terminal; fluorescently labelled
Description: microscale thermophoresis, one-site model on isolated RA domain of RALGDS | obtained binding affinities in the low μM range

[2] = biological target: T4, full-length RALGDS recombinant protein (Homo sapiens, UniProt Q12967); experiment: analytical ultracentrifugation; format: binding
T4 construct: full length, purified recombinant, purchased from Genscript Biotech
T4 sequence (Q12967 1-914): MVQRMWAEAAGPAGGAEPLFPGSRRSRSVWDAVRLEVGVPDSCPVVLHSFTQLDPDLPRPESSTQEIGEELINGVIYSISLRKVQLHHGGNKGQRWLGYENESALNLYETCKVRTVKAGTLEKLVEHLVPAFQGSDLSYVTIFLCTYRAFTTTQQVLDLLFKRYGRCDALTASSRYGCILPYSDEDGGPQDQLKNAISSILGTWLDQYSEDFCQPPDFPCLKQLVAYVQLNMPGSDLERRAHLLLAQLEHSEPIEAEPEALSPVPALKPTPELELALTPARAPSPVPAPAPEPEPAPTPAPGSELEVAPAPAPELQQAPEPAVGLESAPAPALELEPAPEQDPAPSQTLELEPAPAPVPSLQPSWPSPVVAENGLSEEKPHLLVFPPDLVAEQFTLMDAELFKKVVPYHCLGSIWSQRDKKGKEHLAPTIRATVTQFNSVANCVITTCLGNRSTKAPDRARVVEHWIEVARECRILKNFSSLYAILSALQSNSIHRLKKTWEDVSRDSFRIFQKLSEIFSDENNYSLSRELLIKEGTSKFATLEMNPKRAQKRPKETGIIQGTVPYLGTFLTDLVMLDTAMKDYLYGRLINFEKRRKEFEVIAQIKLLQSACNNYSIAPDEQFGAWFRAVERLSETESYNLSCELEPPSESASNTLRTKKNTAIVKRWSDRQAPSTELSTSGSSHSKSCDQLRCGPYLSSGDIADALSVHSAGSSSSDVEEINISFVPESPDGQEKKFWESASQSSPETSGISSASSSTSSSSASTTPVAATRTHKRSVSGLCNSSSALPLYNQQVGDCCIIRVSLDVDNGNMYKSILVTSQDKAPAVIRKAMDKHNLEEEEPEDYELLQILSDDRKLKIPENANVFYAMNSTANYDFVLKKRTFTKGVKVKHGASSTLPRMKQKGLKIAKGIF

RGL3 = biological target: T5, RGL3 (Homo sapiens, UniProt Q3MIN7); experiment: co-immunoprecipitation of H-RAS12V from mixed HEK-293 lysates, Western blot; format: biochemical; conditions: 20 μM (figure legend; 10 μM in methods), HA-H-RAS12V partner, pH 7.5, room temperature; inhibition of RAS/RALGEF complex
T5 construct: Flag-tagged, construct purchased from Genscript, expressed in HEK-293, lysate

Row | Compound | co-immunoprecipitation of H-RAS12V from mixed HEK-293 lysates, Western blot (RGL2 (also known as Rlf)) | co-immunoprecipitation of H-RAS12V from mixed HEK-293 lysates, Western blot (GFP-tagged RALGDS) | Kd [1] | Kd [2] | co-immunoprecipitation of H-RAS12V from mixed HEK-293 lysates, Western blot (RGL3)
1 | COc1cccc(CNc2nc(CN(C)Cc3cccc(OC)c3)nc3sc(C)c(C)c23)c1 [C4] | The complex formation was suppressed. | The complex formation was suppressed. |  |  | 
2 | COc1cccc(CNc2nc(CNCc3cccc(F)c3)nc3sc(C)c(C)c23)c1 [C4-180] | C4-180 was noticably better at suppressing the interaction of RAS with RALGDS and RGL2 | C4-180 was noticably better at suppressing the interaction of RAS with RALGDS and RGL2 | 2550 nM | ~1000 nM | C4-180 could act on RALGDS, RGL2 and RGL3 family members
